Results: patent publication US20230142274A1 (SIMCERE PHARMACEUTICAL CO., LTD., priority 2020, published 2023)

tested on: Daudi cells; assay: Inhibition of human Daudi lymphoma cell proliferation (Cell-Titer Glo); format: cell-based; conditions: 3 days incubation, read-out: Anti-Proliferative Activity Against Daudi cells IC50
Description: Introduction of the experimental principle: After the RAD51 inhibitor to be tested was co-incubated with cancer cells for a period of time, the influence of the test compound on cell proliferation was measured by a method for counting cell proliferation based on the quantitative measurement of intracellular ATP content.
Materials and Cells: Daudi cells were purchased from ATCC; fetal bovine serum, 1640 medium and penicillin-streptomycin were purchased from Gibco Inc. (U.S.), 96-well plates were purchased from Corning Inc. (U.S.), and Cell-Titer Glo reagent was purchased from Promega Corporation (U.S.).
Cell culture: Daudi cells were cultured in 1640 culture medium containing 10% fetal bovine serum and 1% penicillin-streptomycin at 37° C. in an atmosphere containing 5% CO2. Cells in logarithmic growth phase could be used for experiments.
Assay of cell proliferation and viability: Cell-Titer Glo reagent was used to measure the inhibitory activities of the compounds on the proliferation of Daudi cell strain. The concentration of cells was adjusted, and the cells were seeded in a 96-well plate and cultured at 37° C. in an atmosphere containing 5% CO2 for 24 hours. The powder of the compound was dissolved in 100% DMSO to form a 10 mM solution. 10 μl of the solution of the compound was aspirated and transferred into a 96-well compound plate containing 20 μl of DMSO solution for 3-fold dilution and was then formulated into 10 serial dilutions. Thereafter, 2 μl of the solution of the compound was aspirated from the corresponding well and added correspondingly into a 96-well intermediate compound dilution plate containing 78 μl of complete culture medium in each well. The resultant was mixed well, and the plate was centrifuged at 1000 rpm for 1 minute. Finally, 10 μl of the solution of the compound was aspirated from the corresponding well of the 96-well intermediate compound dilution plate, and transferred into the corresponding well of the cell culture plate containing 90 μl of complete culture medium. The final concentration of DMSO was 0.25%. After the addition of the compound, the cells were continued to be incubated for 3 days at 37° C. in an atmosphere containing 5% CO2. Cell-Titer Glo reagent was added to measure cell viability.
% Compound inhibition was calculated and IC50 of the compound was filled;
% Compound inhibition=1−100%×(Signal−Bottom)/(Top−Bottom)

Compound	IC50 [nM]
CC(C)OC(=O)Nc1ccc(-c2cnc(N3CC4C(C3)C4NC(=O)OC(C)C)s2)c(S(=O)(=O)NC(C)(C)C)c1 (stereo not drawn) [Example 10, isopropyl exo-N-[3-(tert-butylsulfamoyl)-4-[2-[6-(isopropoxycarbonylamino)-3-azabicyclo[3.1.0]hex-3-yl]thiazol-5-yl]phenyl]carbamate]	9720

same assay, conditions: Homo sapiens, 72 h, 3 days incubation, read-out: Anti-Proliferative Activity Against Daudi cells IC50

Compound	IC50 [nM]
CN=S(=O)(c1cc(Nc2cc(C)[nH]n2)ccc1-c1cnc([C@H]2CC[C@H](NC(=O)OC(C)C)CC2)s1)C1CC1 (stereo partly drawn) [Example 97, isopropyl trans-(4-(5-(4-((5-methyl-1H-pyrazol-3-yl)amino)-2-(N-methylcyclopropanesulfonimidoyl)phenyl)thiazol-2-yl)cyclohexyl)carbamate]	290
CC(C)OC(=O)N[C@H]1CC[C@H](c2ncc(-c3ccc(Nc4cccnn4)cc3S(=O)(=O)C(C)C)s2)CC1 [Example 44, isopropyl trans-N-[4-[5-[2-isopropylsulfonyl-4-(pyridazin-3-ylamino)phenyl]thiazol-2-yl]cyclohexyl]carbamate]	680
CC(C)OC(=O)N[C@H]1CC[C@H](c2ncc(-c3ccc(Nc4ccc[nH]c4=O)cc3S(=O)(=O)C(C)C)s2)CC1 [Example 35, isopropyl trans-N-[4-[5-[2-isopropylsulfonyl-4-[(2-oxo-1H-pyridin-3-yl)amino]phenyl]thiazol-2-yl]cyclohexyl]carbamate]	4290
Cc1cc(Nc2ccc(-c3cnc([C@H]4CC[C@H](NC(=O)OC(C)C)CC4)s3)c(S(=O)(=O)C(C)C)c2)sn1 [Example 38]	150
Cc1cc(Nc2ccc(-c3cnc([C@H]4CC[C@H](NC(=O)OC(C)C)CC4)[nH]3)c(S(=O)(=O)C3CC3)c2)n[nH]1 [Example 90]	8800
CC(C)OC(=O)Nc1ccc(-c2nnc([C@H]3CC[C@H](NC(=O)OC(C)C)CC3)s2)c(S(=N)(=O)C(C)C)c1 (stereo partly drawn) [Example 41, isopropyl trans-N-[4-[5-[4-(isopropoxycarbonylamino)cyclohexyl]-1,3,4-thiadiazol-2-yl]-3-(isopropylsulfonimidoyl)phenyl]carbamate]	900
CN=S(=O)(c1cc(NC(=O)OC(C)C)ccc1-c1cnc(C2CCC(NC(=O)OC(C)C)CC2)s1)C(C)C (stereo not drawn) [Example 20, isopropyl trans-N-[4-[2-[4-(isopropoxycarbonylamino)cyclohexyl]thiazol-5-yl]-3-(isopropyl-N-methyl-sulfonimidoyl)phenyl]carbamate]	2750
CC(C)OC(=O)Nc1ccc(-c2cnc(C3CCC(NC(=O)OC(C)C)CC3)s2)c(S(C)(=O)=NC2CC2)c1 (stereo not drawn) [Example 43, isopropyl trans-N-[3-(N-cyclopropyl-S-methyl-sulfonimidoyl)-4-[2-[4-(isopropoxycarbonylamino)cyclohexyl]thiazol-5-yl]phenyl]carbamate]	1580
CC(C)OC(=O)N[C@H]1CC[C@H](c2ncc(-c3ccc(Nc4ccc(=O)[nH]c4)cc3S(=O)(=O)C3CC3)s2)CC1 [Example 96, isopropyl trans-(4-(5-(2-(cyclopropylsulfonyl)-4-((6-oxo-1,6-dihydropyridin-3-yl)amino)phenyl)thiazol-2-yl)cyclohexyl)carbamate]	140
CC(C)OC(=O)Nc1ccc(-c2ncc(-c3ccc(Nc4cn(C)nn4)cc3S(=O)(=O)C3CC3)s2)cc1 [Example 59]	125
Cc1cc(Nc2ccc(-c3nc4c(s3)CC(NC(=O)OC(C)C)CC4)c(S(=O)(=O)C3CC3)c2)n[nH]1 (stereo not shown) [Example 107, isopropyl (2-(2-(cyclopropylsulfonyl)-4-((5-methyl-1H-pyrazol-3-yl)amino)phenyl)-4,5,6,7-tetrahydrobenzo[d]thiazol-6-yl)carbamate]	275
CC(C)OC(=O)N[C@H]1CC[C@H](c2ncc(-c3ccc(N4CCCO4)cc3S(=O)(=O)C3CC3)s2)CC1 [Example 73, isopropyl trans-N-[4-[5-(2-cyclopropylsulfonyl-4-isoxazolidin-2-yl-phenyl)thiazol-2-yl]cyclohexyl]carbamate]	200

Continued, values first:

IC50 [nM]	Compound
10	COc1ccc(Nc2ccc(-c3cnc([C@H]4CC[C@H](NC(=O)OC(C)C)CC4)s3)c(S(=O)(=O)C3CC3)c2)cn1 [Example 93, isopropyl trans-(4-(5-(2-(cyclopropylsulfonyl)-4-((6-methoxypyridin-3-yl)amino)phenyl)thiazol-2-yl)cyclohexyl)carbamate]
90	CC(C)OC(=O)N[C@H]1CC[C@H](c2ncc(-c3ccc(NC(=O)C4CC4)cc3S(=O)(=O)C3CC3)s2)CC1 [Example 74, isopropyl trans-(4-(5-(4-(cyclopropanecarboxamido)-2-(cyclopropylsulfonyl)phenyl)thiazol-2-yl)cyclohexyl)carbamate]
26	Cc1cc(Nc2ccc(-c3cnc([C@H]4CC[C@H](NC(=O)OC(C)C)CC4)s3)c(S(=N)(=O)C3COC3)c2)n[nH]1 (stereo partly drawn) [Example 105, isopropyl trans-N-[4-[5-[4-[(5-methyl-1H-pyrazol-3-yl)amino]-2-(oxetan-3-ylsulfonimidoyl)phenyl]thiazol-2-yl]cyclohexyl]carbamate]
51	CC(C)OC(=O)N[C@H]1CC[C@H](c2ncc(-c3ccc(Nc4ncccn4)cc3S(=O)(=O)C3CC3)s2)CC1 [Example 79, isopropyl trans-(4-(5-(2-(cyclopropylsulfonyl)-4-(pyrimidin-2-ylamino)phenyl)thiazol-2-yl)cyclohexyl)carbamate]
70	CC(C)OC(=O)N[C@H]1CC[C@H](c2ncc(-c3ccc(Nc4cc(C5CC5)[nH]n4)cc3S(=N)(=O)C3CC3)s2)CC1 (stereo partly drawn) [Example 63, isopropyl trans-N-[4-[5-[4-[(5-cyclopropyl-1H-pyrazol-3-yl)amino]-2-(cyclopropylsulfonimidoyl)phenyl]thiazol-2-yl]cyclohexyl]carbamate]
36	CC(C)OC(=O)N[C@H]1CC[C@H](c2ncc(-c3ccc(Nc4ncco4)cc3S(=N)(=O)C3CC3)s2)CC1 (stereo partly drawn) [Example 99, isopropyl trans-(4-(5-(2-(cyclopropanesulfonimidoyl)-4-(oxazol-2-ylamino)phenyl)thiazol-2-yl)cyclohexyl)carbamate]
4	Cc1cc(Nc2ccc(-c3cnc(C45CCC(NC(=O)OC(C)C)(CC4)CC5)s3)c(S(=O)(=O)C3CC3)c2)n[nH]1 [Example 60]
4	Cc1ccc(Nc2ccc(-c3cnc(C4CCC(NC(=O)OC(C)C)CC4)s3)c(S(=O)(=O)C3CC3)c2)nc1 (stereo not drawn) [Example 77, isopropyl trans-(4-(5-(2-(cyclopropylsulfonyl)-4-((5-methylpyridin-2-ylamino)phenyl)thiazol-2-yl)cyclohexyl)carbamate]
27	CC(C)OC(=O)NC12CCC(c3ncc(-c4ccc(Nc5cn(C)nn5)cc4S(=O)(=O)C4CC4)s3)(CC1)CC2 [Example 58]
60	Cc1cc(Nc2ccc(-c3ncc([C@H]4CC[C@@H](NC(=O)OC(C)C)CC4)s3)c(S(=O)(=O)C3CC3)c2)n[nH]1 [Example 91-1, isopropyl cis-(4-(2-(2-(cyclopropylsulfonyl)-4-((5-methyl-1H-pyrazol-3-yl)amino)phenyl)thiazol-5-yl)cyclohexyl)carbamate]
80	Cc1cc(Nc2ccc(-c3cnc(C4CCC(NC(=O)OC(C)C)CC4)s3)c([S+]([O-])C3CC3)c2)n[nH]1 (stereo not drawn) [Example 52, isopropyl trans-N-[4-[5-[2-cyclopropylsulfinyl]-4-[(5-methyl-1H-pyrazol-3-yl)amino]phenyl]thiazol-2-yl]cyclohexyl]carbamate]
76	Cc1cc(Nc2ccc(-c3cnc(N4CC5C(C4)C5NC(=O)OC(C)C)s3)c(S(=O)(=O)C3CC3)c2)n[nH]1 (stereo not shown) [Example 109, isopropyl (3-(5-(2-(cyclopropylsulfonyl)-4-((5-methyl-1H-pyrazol-3-yl)amino)phenyl)thiazol-2-yl)-3-azabicyclo[3.1.0]hexanone-6-yl)carbamate]
18	CC(C)OC(=O)N[C@H]1CC[C@H](c2ncc(-c3ccc(Nc4ccccn4)cc3S(=O)(=O)C3CC3)s2)CC1 [Example 66, isopropyl trans-N-[4-[5-[2-cyclopropylsulfonyl-4-(2-pyridylamino)phenyl]thiazol-2-yl]cyclohexyl]carbamate]
17	CC(C)OC(=O)N[C@H]1CC[C@H](c2ncc(-c3ccc(Nc4ccc(F)cn4)cc3S(=O)(=O)C3COC3)s2)CC1 [Example 112, isopropyl trans-N-[4-[5-[4-[(5-fluoro-2-pyridyl)amino]-2-(oxetan-3-ylsulfonyl)phenyl]thiazol-2-yl]cyclohexyl]carbamate]
65	Cc1cc(Nc2ccc(-c3cnc([C@H]4CC[C@H](NC(=O)OC(C)C)CC4)s3)c(S(=O)(=O)C(F)(F)F)c2)n[nH]1 [Example 51, isopropyl trans-N-[4-[5-[4-[(5-methyl-1H-pyrazol-3-yl)amino]-2-(trifluoromethylsulfonyl)phenyl]thiazol-2-yl]cyclohexyl]carbamate]
